Measured values published in publication PMC10794345, “Analysis of vascular disruption in zebrafish embryos as an endpoint to predict developmental toxicity” (Archives of Toxicology, 2023).
Read-outs that look alike come from different tables or passages of the source.

Key:
[1] = tested on: zebrafish embryos (wild-type strain OBI/WIK); assay: ISV inhibition (angiogenesis) by video subtraction in wildtype zebrafish embryos; format: in vivo, zebrafish (D. rerio)
Procedure: A wild-type adult zebrafish strain (D. rerio, strain OBI/WIK, generation F3), originating from an in-house cross of zebrafish strains UFZ-OBI and WIK, was used for all experiments. The Tg(kdr:EGFP) strain was kindly provided by the University of Jena. Fish were fed twice daily with dry food (SDS-400, Special Diets Services, Essex England) and once daily with Artemia sp. […] Spawning trays were inserted 4–6 h before the end of the light cycle. The following day, spawning was initiated by the onset of light and eggs were collected within 1 h. Exposure in all experiment was ceased at 96 hpf.
(§1) Exposure was conducted in rectangular 96-well microplates (Clear Polystyrene, flat bottom, Uniplate, Whatman, GE Healthcare) covered by a lid with a test volume of 400 µL of exposure media. For each replicate one embryo per well and 16 wells per concentration were assessed. Experiments were performed with at least two replicates on independent days and breeding.
To determine the number of ISVs in the trunk region, high-resolution images of 96 hpf-old zebrafish embryos were recorded using a Leica DM6B-Z microscope (Leica, Wetzlar, Germany) attached to the VAST imaging system, and a camera (Leica DFC9000 sCMOS, objective: HC APO L U-V-I 20x/0.50 WATER UV). A series of 20 images with a frame rate of 20 images per second and a 2 × 2 pixel binning was recorded in autofocus mode for each embryo.
A series of MATLAB scripts (Supplement File ‘Workflow 3.m’ and ‘Workflow 4.m’) was used to convert the image series into a video and to visualize the blood vessel by applying a video subtraction approach (Figure SI1). Briefly, each video frame was subtracted from the average image of the whole image sequence and converted to a binary image by applying a Gaussian blur (σ = 5) and a threshold of 0.025 to obtain optimal contrast in binary images. Subsequently, the sum of all binary images was calculated. Due to movement of the blood cells the subtraction approach removed all parts from the image which were not moving resulting in an image of the blood vessels. This binary image of the blood vessel network in the zebrafish embryo tail was then processed with the FishInspector annotation software (version 1.70). […] The number of ISVs was obtained by application of a KNIME workflow to FishInspector annotation files. Subsequently concentration–response analysis was conducted using a KNIME workflow. The coefficient of variation (CV) of controls was calculated for both the subtraction and the fluorescence-based method by dividing the standard deviation of individual embryos with the control mean: CVControl=SD/Mean.
The assessment of lethality and morphological features was based on the percentage of embryos affected. Therefore, morphological endpoints were dichotomized, i.e. feature metrics were converted to the percentage of embryos deviating from controls. An embryo was considered to deviate when it was outside 1.5-fold of the standard deviation range of the mean of the control group. The control mean was determined by pooling control embryos across all experiments (n = 160) (available at git.ufz.de). For heart rate and angiogenesis (number of ISVs) the analysis was based on normalized values, i.e. for each experiment the values of the treatment were divided by the control value. The experiments were designed to calculate effect concentrations based on modelled curve fits. Different concentrations were used in at least two independent replicates, with means of each replicate based on the exposure of 16 different embryos per concentrations. Effect concentration were only modeled when three conditions were met. […] (2) The Akaike information criterion (AIC) for the log-logistic model was lower than the AIC for a linear model with slope 0 (lower p values for the letter would indicate that there is no trend in the data).

[2] = Lethality of zebrafish embryos at 96 hpf; format: in vivo, zebrafish (D. rerio); details: OBI/WIK wild-type, zebrafish, in vivo, other: immersion of embryos in exposure media, ± 95% confidence intervals
Procedure: as §1, with “Fertilized and normally developed embryos were selected according to Kimmel et al. ([1995]) with a dissection microscope (Olympus SZx7-ILLT) at 1 hpf. Depending on experiment, exposure was started within 2–3 h post-fertilization (16–128 cell stages) or at 24 hpf. Exposure” for “Exposure”
Concentration–response curves were fitted for lethality, heart rate, morphological features as previously described (Teixidó et al. [2019], [2022]). The assessment of lethality and morphological features was based on the percentage of embryos affected. Therefore, morphological endpoints were dichotomized, i.e. feature metrics were converted to the percentage of embryos deviating from controls. An embryo was considered to deviate when it was outside 1.5-fold of the standard deviation range of the mean of the control group. The control mean was determined by pooling control embryos across all experiments (n = 160) (available at git.ufz.de). For heart rate and angiogenesis (number of ISVs) the analysis was based on normalized values, i.e. for each experiment the values of the treatment were divided by the control value. The experiments were designed to calculate effect concentrations based on modelled curve fits. Different concentrations were used in at least two independent replicates, with means of each replicate based on the exposure of 16 different embryos per concentrations. Effect concentration were only modeled when three conditions were met. (1) The Tukey trend test based on the R package "tukeytrend" (Schaarschmidt et al. [2022]) was deriving a maximum p-value of 0.05. (2) The Akaike information criterion (AIC) for the log-logistic model was lower than the AIC for a linear model with slope 0 (lower p values for the letter would indicate that there is no trend in the data). (3) We calculated effect concentrations only if at least 30% of embryos for that endpoint were affected in at least one exposure concentration of (for normalized data) a reduction or increase by 30% was observed.

[3] = Danio rerio, 24–96 hpf exposure, ± 95% confidence intervals, read-out: IC50 of ISV inhibition

Compound	IC50 ([1]; 3–96 hpf exposure, ± 95% confidence intervals, read-out: IC50 of ISV inhibition) [µM]	IC50 ([1]; 24–96 hpf exposure, ± 95% confidence intervals, read-out: IC50 of ISV inhibition) [µM]	IC50 ([1]; exposure window not stated at this place, read-out: IC50 / loss of ISV number, current study as restated in discussion) [µM]	IC50 [1, 3] [µM]	LC50 ([2]; 3–96 hpf exposure) [µM]	LC50 ([2]; 24–96 hpf exposure) [µM]	IC50 ([1]; Danio rerio, 3–96 hpf exposure, ± 95% confidence intervals, read-out: IC50 of ISV inhibition) [µM]
CN(C)c1ccc(C=C2C(=O)Nc3ccccc32)cc1 [SU4312]	2.3 ± 0.42	2.59 ± 0.6	0.09				
Cc1cc(C)c(/C=C2\C(=O)Nc3ccccc32)[nH]1 [SU5416]				2.1 ± 0.35	0.89 ± 0.42	1.93 ± 0.83	
CNC(=O)c1cc(Oc2ccc(NC(=O)Nc3ccc(Cl)c(C(F)(F)F)c3)cc2)ccn1 [Sorafenib]				1.36 ± 0.24	2.8 ± 0.31		1.37 ± 0.1
